Patent US11564920B2, “5-heteroaryl-1H-pyrazol-3-amine derivative” (Sumitomo Pharma Co., Ltd., priority 2020, dated 2023)
pIC50: −log10 of the molar value. Read-outs that look alike come from different tables or passages of the source.

Key:
[1] = target: RSK3 (Homo sapiens (Human), UniProt Q15349); assay: Kinase selectivity test (HotSpot Full Panel Kinase profiling); type: biochemical; conditions: 100 nM, ATP 10 μM; read-out: Residual activity (%) RSK3
Procedure: (§1) Buffer: 20 mM HEPES, pH 7.5, 10 mM MgCl2, 2 mM […] (as needed), 1 mM EGTA, 0.02% Brij35, 0.02 mg/mL BSA, 0.1 mM Na3VO4, 2 mM DTT, 1% DMSO
(§2) Compound concentration: 100 nM

[2] = target: MARK4 (Homo sapiens (Human), UniProt Q96L34); assay: as above; type: biochemical; conditions: 100 nM, ATP 10 μM; read-out: Residual activity (%) MARK4 (MARKA [sic] in Table 32)
Procedure: as §1, §2

[3] = target: SIK2 (Homo sapiens (Human), UniProt Q9H0K1); assay: as above; type: biochemical; conditions: 100 nM, ATP 10 μM; read-out: Residual activity (%) SIK2
Procedure: as §1, §2

[4] = target: TNIK (Homo sapiens (Human), UniProt Q9UKE5); assay: as above; type: biochemical; conditions: 100 nM, ATP 10 μM; read-out: Residual activity (%) TNIK
Procedure: as §1, §2

[5] = target: RSK4 (Homo sapiens (Human), UniProt Q9UK32); assay: as above; type: biochemical; conditions: 100 nM, ATP 10 μM; read-out: Residual activity (%) RSK4
Procedure: as §1, §2

[6] = target: RSK2 (Homo sapiens (Human), UniProt P51812); assay: as above; type: biochemical; conditions: 100 nM, ATP 10 μM; read-out: Residual activity (%) RSK2
Procedure: as §1, §2

[7] = target: RSK1 (Homo sapiens (Human), UniProt Q15418); assay: as above; type: biochemical; conditions: 100 nM, ATP 10 μM; read-out: Residual activity (%) RSK1
Procedure: as §1, §2

[8] = target: CAMK2A (Homo sapiens (Human), UniProt Q9UQM7); assay: as above; type: biochemical; conditions: 100 nM, ATP 10 μM; read-out: Residual activity (%) CAMK2A
Procedure: as §1, §2

[9] = target: MELK (Homo sapiens (Human), UniProt Q14680); assay: as above; type: biochemical; conditions: 100 nM, ATP 10 μM; read-out: Residual activity (%) MELK
Procedure: as §1, §2

[10] = target: RET (Homo sapiens (Human), UniProt P07949); assay: as above; type: biochemical; conditions: 100 nM, ATP 10 μM; read-out: Residual activity (%) RET
Procedure: as §1, §2

[11] = target: TRKC (Homo sapiens (Human), UniProt Q16288); assay: as above; type: biochemical; conditions: 100 nM, ATP 10 μM; read-out: Residual activity (%) TRKC
Procedure: as §1, §2

[12] = system: ES-2 cells; assay: Cell growth suppression experiment; type: cell-based; conditions: for pIC50: Homo sapiens, 48 h, cultured for 2 days, read-out: IC50 (cell growth suppression, ranking)
Procedure: ES-2 cells were obtained from the American Type Culture Collection (ATCC). These cells were cultured at 37° C. in the presence of 5% CO2 in a 10% fetal bovine serum, […] penicillin/streptomycin containing McCoy's 5a medium.
500 cells were seeded for each well in a 384-well plate, and the evaluated compound was added so that the final concentration of DMSO would be 0.1% to culture the cells for 2 days. After completion of the culture, the cell viability rate was calculated using CellTiter-Glo® 3D Reagent (Promega, G968B).

[13] = Liposome encapsulation test (Test Example 6); type: physicochemical
Procedure: 6.48 g of hydrogenated soybean phosphatidylcholine (COATSOME NC-21E, NOF Corporation), 2.32 g of cholesterol (Sigma) and 2.06 g of distearoylphosphatidylethanolamine-methoxypolyethylene glycol 2000 (SUNBRIGHT DSPE-020CN, NOF Corporation) were dissolved in 560 mL of t-butyl alcohol heated to 65° C. The solution was frozen with dry ice/acetone bath and t-butyl alcohol was then removed by evaporation under reduced pressure to obtain a lipid mixture.
200 mL of 250 mM ammonium sulfate solution was added to the lipid mixture. The resulting mixture was heated to 65° C. and dispersed with a homogenizer (ULTRA-TURRAX, IKA) to obtain a crude liposome dispersion. […] The prepared amount was increased or decreased appropriately.
2 to 3 mg of the test compound was weighed out. 1 mL of empty liposome solution with a total lipid concentration of 50 mM was added. An aqueous 1 mol/L hydrochloric acid or 1 mol/L sodium hydroxide solution was added to adjust the pH to 5.5 to 7. […] Insolubles, when present, were removed by centrifugation for 5 minutes at 15,000×g.
100 μL of liposome solution was passed through an ultrafiltration filter (Amicon Ultra, 100K, 0.5 mL, Merck), and centrifuged at 4° C. at 15,000×g for 10 minutes. The concentration of the compound in the filtrate after ultrafiltration was measured by HPLC as the unencapsulated compound concentration.
The liposome solution was diluted with a trifluoroacetic acid/water/methanol mixture (0.1/25/75) and was left standing for 10 minutes or longer at 5° C. The solution was centrifuged for 5 minutes at 15,000×g to remove insolubles. The compound concentration in the supernatant was measured by HPLC as the compound concentration in the liposome solution.
The encapsulation ratio and the encapsulation efficiency were calculated by the following equations. Encapsulation ratio (%)=(compound concentration in liposome solution−unencapsulated compound concentration)×100/compound concentration in liposome solution Encapsulation efficiency (%)=(compound concentration in liposome solution−unencapsulated compound concentration)×100/concentration upon compound introduction

[14] = target: CYP3A4 (Homo sapiens (Human), UniProt P08684); assay: CYP3A4 MBI and enzyme inactivation clearance evaluation; type: in vitro ADME; conditions: human liver microsome
Procedure: The effect and mode of inhibition of the test compound on CYP3A4 were evaluated using a human liver microsome as an enzyme source and midazolam or testosterone as a substrate. […] The IC50 value was calculated from a concentration plot.

[15] = Pharmacokinetic test in mice; type: in vivo; conditions: female, BALB/c, mouse, whole blood, iv, liposome formulations, 1.0 mg/kg i.v., trapezoidal method

Sequence of CYP3A4 (P08684 whole entry): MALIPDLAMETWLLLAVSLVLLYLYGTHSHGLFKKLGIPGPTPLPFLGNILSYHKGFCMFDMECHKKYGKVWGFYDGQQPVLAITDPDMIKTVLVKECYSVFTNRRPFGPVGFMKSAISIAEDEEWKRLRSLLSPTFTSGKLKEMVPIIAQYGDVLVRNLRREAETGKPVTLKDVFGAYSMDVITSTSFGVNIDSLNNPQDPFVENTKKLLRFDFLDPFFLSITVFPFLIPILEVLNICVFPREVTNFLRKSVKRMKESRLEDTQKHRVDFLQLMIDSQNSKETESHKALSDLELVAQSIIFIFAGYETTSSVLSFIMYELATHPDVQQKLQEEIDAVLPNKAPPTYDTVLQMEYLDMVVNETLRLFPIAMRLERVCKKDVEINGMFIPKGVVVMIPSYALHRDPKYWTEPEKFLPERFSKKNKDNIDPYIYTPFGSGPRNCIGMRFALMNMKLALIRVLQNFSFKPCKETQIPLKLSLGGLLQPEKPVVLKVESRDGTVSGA
Sequence of MELK (Q14680 whole entry): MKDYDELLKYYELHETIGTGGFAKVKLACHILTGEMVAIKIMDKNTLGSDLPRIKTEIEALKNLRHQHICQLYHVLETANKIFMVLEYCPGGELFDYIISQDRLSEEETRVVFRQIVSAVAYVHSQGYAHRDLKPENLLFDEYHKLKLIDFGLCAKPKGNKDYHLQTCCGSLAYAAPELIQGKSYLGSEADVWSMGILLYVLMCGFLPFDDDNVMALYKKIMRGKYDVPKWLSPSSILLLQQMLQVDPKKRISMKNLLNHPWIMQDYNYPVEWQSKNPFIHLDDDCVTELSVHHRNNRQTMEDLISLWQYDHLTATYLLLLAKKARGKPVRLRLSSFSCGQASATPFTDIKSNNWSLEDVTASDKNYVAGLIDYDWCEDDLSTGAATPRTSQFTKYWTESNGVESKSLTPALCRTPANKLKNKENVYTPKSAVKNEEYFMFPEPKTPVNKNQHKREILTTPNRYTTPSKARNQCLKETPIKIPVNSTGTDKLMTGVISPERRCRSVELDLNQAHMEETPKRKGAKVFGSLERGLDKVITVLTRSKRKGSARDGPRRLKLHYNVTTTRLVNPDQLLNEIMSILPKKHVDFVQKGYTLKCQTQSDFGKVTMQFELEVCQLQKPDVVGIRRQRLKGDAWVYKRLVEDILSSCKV
Sequence of RSK4 (Q9UK32 whole entry): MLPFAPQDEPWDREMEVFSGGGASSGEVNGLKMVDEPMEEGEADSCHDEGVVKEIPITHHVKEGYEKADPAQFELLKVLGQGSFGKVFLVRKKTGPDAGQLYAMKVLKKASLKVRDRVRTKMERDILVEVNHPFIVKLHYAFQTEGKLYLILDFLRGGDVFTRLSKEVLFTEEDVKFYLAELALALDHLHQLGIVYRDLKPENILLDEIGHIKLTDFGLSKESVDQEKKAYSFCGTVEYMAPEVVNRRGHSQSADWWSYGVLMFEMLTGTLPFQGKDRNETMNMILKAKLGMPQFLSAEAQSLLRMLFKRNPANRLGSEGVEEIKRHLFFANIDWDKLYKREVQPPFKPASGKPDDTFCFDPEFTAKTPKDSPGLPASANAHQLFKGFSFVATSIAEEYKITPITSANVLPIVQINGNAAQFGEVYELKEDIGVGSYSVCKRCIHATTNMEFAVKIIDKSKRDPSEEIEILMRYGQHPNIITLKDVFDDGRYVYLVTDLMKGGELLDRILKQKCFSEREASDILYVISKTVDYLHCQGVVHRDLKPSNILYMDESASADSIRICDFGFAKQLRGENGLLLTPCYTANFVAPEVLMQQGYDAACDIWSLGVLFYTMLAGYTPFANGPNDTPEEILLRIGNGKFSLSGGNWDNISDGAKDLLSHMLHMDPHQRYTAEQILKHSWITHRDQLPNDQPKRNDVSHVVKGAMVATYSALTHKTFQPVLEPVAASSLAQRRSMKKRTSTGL
Sequence of RSK2 (P51812 whole entry): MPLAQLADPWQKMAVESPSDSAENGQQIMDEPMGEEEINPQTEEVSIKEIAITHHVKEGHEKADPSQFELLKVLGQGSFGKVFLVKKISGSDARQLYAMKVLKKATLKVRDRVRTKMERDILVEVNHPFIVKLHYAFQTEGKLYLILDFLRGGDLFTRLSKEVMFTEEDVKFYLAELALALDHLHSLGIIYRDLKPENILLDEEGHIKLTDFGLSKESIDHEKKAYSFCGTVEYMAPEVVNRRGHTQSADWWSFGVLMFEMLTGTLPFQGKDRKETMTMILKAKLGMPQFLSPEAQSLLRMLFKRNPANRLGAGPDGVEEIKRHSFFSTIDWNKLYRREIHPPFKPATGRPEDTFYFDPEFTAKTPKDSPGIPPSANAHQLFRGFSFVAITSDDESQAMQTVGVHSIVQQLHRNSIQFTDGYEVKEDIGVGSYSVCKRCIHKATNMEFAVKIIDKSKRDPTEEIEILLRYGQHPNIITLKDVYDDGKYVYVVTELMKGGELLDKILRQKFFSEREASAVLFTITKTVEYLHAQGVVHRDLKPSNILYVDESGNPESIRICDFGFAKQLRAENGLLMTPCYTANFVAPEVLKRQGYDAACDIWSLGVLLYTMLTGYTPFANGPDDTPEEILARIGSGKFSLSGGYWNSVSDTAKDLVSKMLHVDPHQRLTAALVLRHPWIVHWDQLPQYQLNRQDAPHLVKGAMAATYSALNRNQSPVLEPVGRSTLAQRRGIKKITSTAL
Sequence of TRKC (Q16288 32-839): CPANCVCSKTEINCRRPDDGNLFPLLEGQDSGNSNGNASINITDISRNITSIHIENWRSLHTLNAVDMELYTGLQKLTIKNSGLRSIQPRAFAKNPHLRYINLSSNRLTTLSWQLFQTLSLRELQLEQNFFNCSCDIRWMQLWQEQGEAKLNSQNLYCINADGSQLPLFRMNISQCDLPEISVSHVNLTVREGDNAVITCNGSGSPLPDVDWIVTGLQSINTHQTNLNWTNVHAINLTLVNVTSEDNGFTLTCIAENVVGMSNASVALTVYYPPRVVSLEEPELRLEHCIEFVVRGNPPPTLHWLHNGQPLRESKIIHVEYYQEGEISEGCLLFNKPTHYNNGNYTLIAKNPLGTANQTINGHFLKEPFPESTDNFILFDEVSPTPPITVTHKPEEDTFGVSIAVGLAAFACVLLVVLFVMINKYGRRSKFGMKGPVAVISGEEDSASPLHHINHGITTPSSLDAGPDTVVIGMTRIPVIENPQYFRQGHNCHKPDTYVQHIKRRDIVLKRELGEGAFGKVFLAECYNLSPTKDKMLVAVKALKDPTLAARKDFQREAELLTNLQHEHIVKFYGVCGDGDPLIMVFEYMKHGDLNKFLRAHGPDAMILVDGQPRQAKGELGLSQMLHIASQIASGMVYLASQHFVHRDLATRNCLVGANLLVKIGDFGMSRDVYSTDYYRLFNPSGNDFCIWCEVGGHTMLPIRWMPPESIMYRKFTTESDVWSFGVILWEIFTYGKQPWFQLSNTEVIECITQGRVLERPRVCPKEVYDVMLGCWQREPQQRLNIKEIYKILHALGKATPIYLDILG
Sequence of MARK4 (Q96L34 whole entry): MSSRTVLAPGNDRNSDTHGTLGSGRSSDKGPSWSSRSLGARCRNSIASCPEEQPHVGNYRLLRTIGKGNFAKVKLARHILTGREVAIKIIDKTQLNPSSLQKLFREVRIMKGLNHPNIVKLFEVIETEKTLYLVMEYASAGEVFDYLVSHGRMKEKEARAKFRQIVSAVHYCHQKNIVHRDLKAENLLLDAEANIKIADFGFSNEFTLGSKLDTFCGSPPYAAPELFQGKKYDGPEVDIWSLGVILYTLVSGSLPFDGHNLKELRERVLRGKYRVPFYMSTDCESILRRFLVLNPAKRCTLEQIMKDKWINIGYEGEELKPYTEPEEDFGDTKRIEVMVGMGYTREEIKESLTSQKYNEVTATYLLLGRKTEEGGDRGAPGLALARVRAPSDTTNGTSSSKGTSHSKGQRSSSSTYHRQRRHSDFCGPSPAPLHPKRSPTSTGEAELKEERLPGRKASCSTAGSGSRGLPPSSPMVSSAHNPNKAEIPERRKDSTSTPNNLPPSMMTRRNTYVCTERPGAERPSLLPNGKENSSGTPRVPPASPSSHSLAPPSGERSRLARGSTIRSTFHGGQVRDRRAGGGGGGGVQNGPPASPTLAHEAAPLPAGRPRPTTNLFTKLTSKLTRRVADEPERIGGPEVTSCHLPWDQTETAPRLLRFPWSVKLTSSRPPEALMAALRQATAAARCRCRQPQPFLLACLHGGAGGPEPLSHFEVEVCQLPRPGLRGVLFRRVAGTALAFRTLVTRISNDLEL
Sequence of RSK3 (Q15349 whole entry): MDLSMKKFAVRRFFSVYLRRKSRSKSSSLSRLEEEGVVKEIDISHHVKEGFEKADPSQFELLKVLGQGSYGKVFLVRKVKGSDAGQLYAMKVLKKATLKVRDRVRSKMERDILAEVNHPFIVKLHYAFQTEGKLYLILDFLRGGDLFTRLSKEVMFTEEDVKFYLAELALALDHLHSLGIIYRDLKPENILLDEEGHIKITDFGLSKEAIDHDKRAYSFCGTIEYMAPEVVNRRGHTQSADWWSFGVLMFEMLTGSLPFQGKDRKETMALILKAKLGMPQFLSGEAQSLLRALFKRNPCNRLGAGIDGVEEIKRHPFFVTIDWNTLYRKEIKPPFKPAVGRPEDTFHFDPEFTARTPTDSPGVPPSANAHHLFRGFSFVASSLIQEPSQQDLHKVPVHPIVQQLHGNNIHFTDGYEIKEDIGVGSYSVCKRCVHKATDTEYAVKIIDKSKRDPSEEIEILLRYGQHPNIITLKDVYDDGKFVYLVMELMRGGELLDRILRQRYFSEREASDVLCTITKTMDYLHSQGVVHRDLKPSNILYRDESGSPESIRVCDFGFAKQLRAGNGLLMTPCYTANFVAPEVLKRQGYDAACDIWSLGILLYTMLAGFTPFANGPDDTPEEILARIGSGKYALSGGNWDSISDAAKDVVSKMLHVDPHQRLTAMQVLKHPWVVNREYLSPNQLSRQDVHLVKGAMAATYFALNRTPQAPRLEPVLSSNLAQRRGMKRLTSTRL

| Structure (SMILES) | remaining activity at 0.1 µM [1] | remaining activity at 0.1 µM [2] | remaining activity at 0.1 µM [3] | remaining activity at 0.1 µM [4] | remaining activity at 0.1 µM [5] | remaining activity at 0.1 µM [6] | remaining activity at 0.1 µM [7] | remaining activity at 0.1 µM [8] | remaining activity at 0.1 µM [9] | remaining activity at 0.1 µM [10] | remaining activity at 0.1 µM [11] | pIC50 [12] | inhibition of CYP3A4 based on MBI (in words) [14] | AUC(0-t) [15] | other results |
| --- | --- | --- | --- | --- | --- | --- | --- | --- | --- | --- | --- | --- | --- | --- | --- |
| COc1ccnc(OCCCN)c1-c1cc(Nc2cnc(C#N)cn2)n[nH]1 [Example 1, 5-({5-[2-(3-aminopropoxy)-4-methoxypyridin-3-yl]-1H-pyrazol-3-yl}amino)pyrazine-2-carbonitrile] | 3.91% | 24.1% | 14.1% | 17.8% | 9.05% | 4.32% | 8.51% | 13.9% | 17.2% | 19% | 17.4% | > 7.52 | do not exhibit inhibition of CYP3A4 based on MBI | 447 µg·h/mL | cell growth suppression effect (in words) ([12]; compared with prexasertib): excellent cell growth suppression effect that is equivalent to that of prexasertib; Encapsulation efficiency [13]: ≥ 80%; Encapsulation efficiency ([13]; concentration upon compound introduction 3 mg/mL): 87.4%; liquid viscosity during the liposome encapsulation procedure ([13]; pH adjusted by adding 1 mol/L hydrochloric acid): increase in viscosity was not found; Factor of change in IC50 value ([14]; by pre-incubation with NADPH, MBI action when 2-fold or greater): Not Detected |
| COc1cccc(OCCCN)c1-c1cc(Nc2cnc(C#N)cn2)n[nH]1 [Prexasertib, reference compound] | 1.69% | 10.2% | 2.62% | 7.76% | 4.78% | 0.98% | 2.23% | 2.52% | 11.4% | 7.12% | 12.7% | > 7.52 | exhibits inhibition of CYP3A4 based on MBI | 236 µg·h/mL | Compound concentration in liposome solution ([13]; concentration upon compound introduction 2 mg/mL): 2160 µg/mL; microsomal CLint ([14]; liver microsomes, probe midazolam or testosterone): 0.019 µL/min/mg |
